From PubChem BioAssay (NCI)
Where “and” joins values, the source holds several entries; their conditions need not be identical. Equal values may be shown once.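 Briefly, cells in 96-well plates were exposed to five compound concentrations for 48 h, and endpoints were estimated by linear interpolation. Here, GI50 denotes the concentration required for 50% inhibition of growth. TGI is the concentration that stops growth completely.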 Numbered stars: 1 amine (or outer) side, 2 acyl side, 3 side chain; on linkers, the order of the positions; unused ones are H or OH. Bridge positions count the residues as written; N and C are the ends. Square brackets hold non-standard residues; d marks the D form. Peptide text beside a SMILES is read from it. I, II: the chains in the order shown. Actinocin(1to9) = Cc1c2oc3c(C)ccc(C(=O)[*:2])c3nc-2c(C(=O)[*:1])c(N)c1=O; NMeY = CN[CH](Cc1ccc(O)cc1)C(=O)O; Sar = CNCC(=O)O

Legend:
Test in all cases: NCI anticancer screen, dose series, 48 h
[1] = system: 786-0 renal
[2] = system: MCF7 breast
[3] = system: NCI-H226 lung
[4] = system: OVCAR-5 ovarian
[5] = system: SN12C renal
[6] = system: SW-620 colon
[7] = system: UACC-62 melanoma
[8] = system: TK-10 renal

COC(=O)[C@H](Cc1cn(C)cn1)NC(=O)[C@H](Cc1ccccc1)NC(=O)Nc1cc(C(F)(F)F)cc(C(F)(F)F)c1 was tested, and the GI50 [1] was 16.8 µM, the TGI [1] was 31.9 µM and the GI50 [2] was 2.58 µM and 5.03 µM. For the same molecule, the TGI [2] was 9.73 µM and 29.4 µM, the GI50 [3] was 19.8 µM and the TGI [3] was 43.8 µM. It also gave a GI50 [4] of 16.8 µM, a TGI [4] of 32.5 µM and a GI50 [5] of 11.7 µM. It also gave a TGI [5] of 24.6 µM, a GI50 [6] of 14.5 µM and a TGI [6] of 30.6 µM.
With CCN(Cc1c(F)cccc1Cl)c1ccc(CO)c(Cl)c1 the GI50 [1] was 14.9 µM, the TGI [1] was 30.1 µM and the GI50 [2] was under 0.02 µM. For the same molecule, the TGI [2] was 14.4 µM, the TGI [4] was 0.106 µM and the GI50 [5] was 11.9 µM. For the same molecule, the TGI [5] was 25 µM, the GI50 [6] was 0.175 µM and the TGI [6] was 20 µM. It also gave a GI50 [7] of 0.0419 µM and a TGI [7] of 0.269 µM.
Work on COc1cc(/C=C2\CCCC3=C2N=C2SC(C)=NN2C3c2cc(OC)c(OC)c(OC)c2)cc(OC)c1OC (configuration not stated) yielded a GI50 [1] of over 100 µM, a TGI [1] of over 100 µM and a GI50 [2] of 0.319 µM. It also gave a TGI [2] of over 100 µM, a GI50 [6] of 0.41 µM and a TGI [6] of over 100 µM. It also gave a GI50 [8] of over 100 µM and a TGI [8] of over 100 µM.
For CO/N=C(\COc1ccc2oc(-c3ccccc3)cc(=O)c2c1)c1ccc(F)cc1, the GI50 [1] was 21.3 µM, the TGI [1] was 43.7 µM and the GI50 [3] was 29.7 µM. It also gave a TGI [3] of over 100 µM, a GI50 [4] of 17.5 µM and a TGI [4] of 39.1 µM. It also gave a GI50 [5] of 16.9 µM, a TGI [5] of 35 µM and a GI50 [6] of 30.3 µM. For the same molecule, the TGI [6] was over 100 µM, the GI50 [8] was 22.9 µM and the TGI [8] was 53 µM. For the same molecule, the GI50 [7] was 21.9 µM and the TGI [7] was 86.5 µM.
With CC(C)(C)OC(=O)N[C@@H](Cc1ccccc1)C(=O)N(Cc1ccccc1)C1(C(=O)NCc2ccccc2)CCN(Cc2ccccc2)CC1 the GI50 [1] was 2.99 µM, the TGI [1] was 43.3 µM and the GI50 [2] was 2.82 µM. For the same molecule, the TGI [2] was 19.3 µM, the GI50 [3] was 3.2 µM and the TGI [3] was over 100 µM. It also gave a GI50 [5] of 3.45 µM, a TGI [5] of over 100 µM and a GI50 [6] of 3.49 µM. It also gave a TGI [6] of over 100 µM, a GI50 [8] of 3.17 µM and a TGI [8] of 70.3 µM. For the same molecule, the GI50 [7] was 2.54 µM and the TGI [7] was 7.88 µM.
For COc1ccc2[nH]c(C(=O)OCc3ccc4c(Cl)cc(Cl)c(O)c4n3)cc2c1, the GI50 [1] was 1.3 µM, the TGI [1] was 2.6 µM and the GI50 [3] was 1.42 µM. The TGI [3] was 3.07 µM, the GI50 [4] was 1.49 µM and the TGI [4] was 2.9 µM. It also gave a GI50 [5] of 1.24 µM, a TGI [5] of 2.51 µM and a GI50 [6] of 0.814 µM. The TGI [6] was 2.31 µM, the GI50 [8] was 1.68 µM and the TGI [8] was 3.05 µM. It also gave a GI50 [7] of 1.33 µM and a TGI [7] of 2.61 µM.
COc1ccc(CC2C(=O)OC(C)C(NC(=O)c3c4nc5c(C(=O)NC6C(=O)NC(C(C)C)C(=O)N7CCCC7C(=O)N(C)CC(=O)N(C)C(Cc7ccc(OC)cc7)C(=O)OC6C)ccc(C)c5oc-4c(C)c(=O)c3N)C(=O)NC(C(C)C)C(=O)N3CCCC3C(=O)N(C)CC(=O)N2C)cc1 (configuration not stated) (I: TVP[Sar][NMeY](Me) / II: TVP[Sar][NMeY](Me); ester I:1-I:C, II:1-II:C; linker I:N-II:N via Actinocin(1to9); configuration not given here) was tested, and the GI50 [1] was < 0.0333 µM and 0.00694 µM, the TGI [1] was over 1 µM and the GI50 [2] was < 0.01 µM and 0.003 µM. The TGI [2] was 1.29 µM and > 1 µM, the TGI [3] was over 0.213 µM and the GI50 [4] was < 0.01 µM and 0.0841 µM. For the same molecule, the TGI [4] was over 0.651 µM, the TGI [5] was over 1 µM and the TGI [8] was 2.69 µM and 0.969 µM.
